Experimental data as given in the NIST ThermoML archive (doi:10.1021/je500389t).
± gives the expanded uncertainty stated by the source.

Columns and labels:
[1] = 101 kPa, Liquid; for viscosity: Capillary tube (Ostwald / Ubbelohde) method; for mass density: Pycnometric method
[2] = xn = mol fraction of the nth substance listed; conditions: 101 kPa, Liquid, Capillary tube (Ostwald / Ubbelohde) method, x2 = 0

viscosity ([1]; 293.15 K) [mPa·s] | mass density ([1]; 293.15 K) [kg/m3] | viscosity ([1]; 298.15 K) [mPa·s] | mass density ([1]; 298.15 K) [kg/m3] | viscosity ([1]; 303.15 K) [mPa·s] | mass density ([1]; 303.15 K) [kg/m3] | viscosity ([1]; 308.15 K) [mPa·s] | mass density ([1]; 308.15 K) [kg/m3] | viscosity ([1]; 313.15 K) [mPa·s] | mass density ([1]; 313.15 K) [kg/m3] | viscosity ([2]; 293.15 K) [mPa·s] | viscosity ([2]; 298.15 K) [mPa·s] | viscosity ([2]; 303.15 K) [mPa·s] | viscosity ([2]; 308.15 K) [mPa·s] | viscosity ([2]; 313.15 K) [mPa·s] | Compound
1.09 ± 0.04 | 945.2 ± 2 | 0.998 ± 0.041 | 939.8 ± 2 | 0.914 ± 0.04 | 935 ± 2 | 0.834 ± 0.04 | 930.7 ± 2 | 0.785 ± 0.04 | 925.4 ± 2 |  |  |  |  |  | COCCOCCOC [2,5,8-trioxanonane]
1.01 ± 0.04 |  | 0.89 ± 0.04 |  | 0.801 ± 0.04 |  | 0.723 ± 0.04 |  | 0.656 ± 0.04 |  |  |  |  |  |  | O [water]
 |  |  |  |  |  |  |  |  |  | 1.01 ± 0.04 | 0.89 ± 0.04 | 0.801 ± 0.04 | 0.723 ± 0.04 | 0.656 ± 0.04 | O [water] + COCCOCCOC
